Legend:
[1] = tested on: nucleus of cells in the cornea; experiment: Distribution of FITC-labeled polyamide in the cornea of alkali injury model rats; format: in vivo, rat; conditions: 1 hour after administration, 1 μmol/L, 5 μl instilled
Protocol: The synthesized FITC polyamide was dissolved in 0.1% acetic acid solution, the concentration was adjusted to 1 μmol/L, 5 μl of the solution was dropped on the central part of the cornea of 8 alkali injury model rats at 1 hour after induction of a trauma. Two animals each were euthanized at 1 hour and on 1, 4, and 7 days after instillation of the FITC polyamide. The eyeball was isolated, embedded in the OCT compound (Miles, Elkhart, Ind., USA) in a plastic container for a frozen section sample, frozen with liquid nitrogen, and stored in an ultra-low temperature refrigerator at −80° C. The sample was thinly sliced into a section of 5 μm and observed under a fluorescence microscope (Olympus Corporation).

[2] = tested on: double-stranded oligo DNA containing the AP-1 binding site that corresponds to the TGF-β1 promoter; experiment: Gel shift assay of PIP binding to target DNA; parameters: species or system rat
Protocol: For the gel shift assay, a fluorescence-labeled match oligo DNA containing the AP-1 binding site that corresponds to the TGF-β1 promoter was synthesized. Sense and antisense oligo DNA suitable for the test were annealed to prepare a double-stranded oligo DNA. 1 μM DNA was incubated with 50 μM PIP compound at 37° C. for 1 hour, separated by electrophoresis using 20% polyacrylamide gel, and visualized using a fluorescence image analyzer LAS-3000 (Fuji Film, Tokyo, Japan).

[3] = tested on: biotin-labeled double-stranded oligo DNA (target DNA, rat TGF-β1 promoter); experiment: Biacore assay of binding affinity for target DNA; conditions: surface plasmon resonance
From the text: Biacore assay can measure binding affinity of rTGF-β (GBP1201) PIP for a target DNA in real time.
Biotin-labeled oligo DNA were annealed to form a double strand, and the double strand was immobilized on a sensor chip SA (Biacore, Uppsala, Sweden) on which streptavidin was immobilized beforehand.
Dynamics of interactions of rTGF-β (GBP1201) PIP, mismatch (FIG. 41 [a]) and biotin-labeled oligo DNA were investigated using Biacore 2000 System (Biacore, Uppsala, Sweden). Data was processed according to the protocol recommended by Biacore2000.

[4] = tested on: alkali burn rat model (cornea); experiment: Corneal opacity, ulceration and corneal defect in rats with alkali burn; format: in vivo; conditions: 1 μmol/L, 5 μl instilled once daily for 1 week, versus 0.1% aqueous acetic acid control
Protocol: 8-week-old male Wister rats were prepared and anesthetized with diethyl ether. Then, 5 μl of 0.5 N sodium hydroxide solution was administered […] to adult Wister rats by instilling the central part of the cornea of both eyes or one eye by a common method according to Saika et al. (Am J. Patho., 2005). At 10 seconds after instillation, the alkali liquid was washed off from the cornea surface with 10 ml of phosphate buffer to prepare an alkali burn rat model.
At 1 hour after a trauma due an alkali burn was induced (9.00 am), and 1 μmol/L rTGF-β (GBP1201) PIP compound and 1 μmol/L of a mixture of rMMP9AP1 and rMMP9NFkB in 1:1 (hereinafter, also referred to as rMMP9PIP) dissolved in 5 μl of 0.1% acetic acid hydrate were administered to the rat right eye by dropping in the central part of the cornea at 9.00 am once daily every day for 1 week. As a control, 0.1% aqueous acetic acid solution was administered to the left eye in the same manner as described above. The same experiment was performed in 6 rats. The reason why 0.1% aqueous acetic acid solution was used was that the PIP compound of the present invention was dissolved in this aqueous solution. Furthermore, to prevent the occurrence of an infection, antibiotic eye ointment Tarivid Ophthalmic Ointment 0.3% (Santen Pharmaceutical Co., Ltd.) was administered at 5.00 pm every day. Furthermore, the drug was administered to 2 rats in which an alkali burn was not induced as controls. Rats were observed every day at the time of instillation and application of an eye ointment, and the cornea was observed and photographed every evening. […] By utilizing this property, the corneal injury was evaluated according to the cornea fluorescein test using a FLUORES test paper (Showa Yakuhin Kako Co., Ltd.) that can test the corneal condition.
The cornea was observed until complete reepithelialization was observed. When the fluorescence staining of the cornea was not observed, complete reepithelialization was defined.
Transparency of the cornea was evaluated as follows. […]

TGF-β1 protein = experiment: Immunohistochemistry test of rat eyes after corneal injury; format: in vivo; conditions: day 1 after alkali injury
Protocol: At 1 hour and on 1, 4, and 7 days after induction of a corneal injury in rats, the eyeball was isolated and embedded in the OCT compound (Miles, Elkhart, Ind., USA.). The frozen section was sliced into sections having a thickness of 5 μm, and histological and immunohistological analyses were performed. Using rabbit-anti-human Tgf-β1 polyclonal antibody (Yanaihira, Japan, catalog No. Y241) as a primary antibody, the sample was diluted 1000-fold before use. 4 nontrauma corneas as normal controls were used to compare rTGF-β (GBP1201) PIP-treated eyes and mock-treated eyes. To determine the specificity of the primary antibody, a negative control was also included.

rTGF-β1 promoter = experiment: Luciferase reporter plasmid assay of rTGF-β1 promoter expression induced by PMA; format: cell-based, rat; conditions: luciferase reporter plasmid with rTGF-β1 promoter region
From the text: The reporter gene expression induced by adding PMA was inhibited by adding GBP1201 and GBP1203 but not by the mismatch polyamide.

| SMILES | FITC fluorescence in the cornea [1] | binding to the target DNA (gel shift) ([2]; 1 μM DNA, 50 μM PIP compound, 37° C., 1 hour) | binding to the mismatch polyamide (gel shift (so in the source)) ([2]; gel shift assay) | binding affinity for target DNA relative to the mismatch polyamide [3] [times] | Kd ([3]; target DNA, 0-300 nM) [nM] | healing of corneal opacity and ulceration [4] | healing of corneal defect (severity of corneal defect) ([4]; listed as TGF-β (GBP1201) PIP) | healing of corneal defect (severity of corneal defect) ([4]; listed as rTGF-β (GBP1201) PIP compound) | TGF-β1 immunohistology versus controls (TGF-β1 protein) | reporter gene expression induced by adding PMA (rTGF-β1 promoter) |
| --- | --- | --- | --- | --- | --- | --- | --- | --- | --- | --- |
| CN(C)CCCNC(=O)CCNC(=O)c1nc(NC(=O)c2nc(NC(=O)CCNC(=O)c3cc(NC(=O)c4cc(NC(=O)c5nc(NC(=O)CCCNC(=O)c6cc(NC(=O)c7cc(NC(=O)c8nc(NC(=O)CCNC(=O)c9cc(NC(=O)c%10cc(NC(=O)CCNC(=S)Nc%11ccc%12c(c%11)C(=O)OC%12%11c%12ccc(O)cc%12Oc%12cc(O)ccc%12%11)cn%10C)cn9C)cn8C)cn7C)cn6C)cn5C)cn4C)cn3C)cn2C)cn1C [rTGF-β (GBP1201) FITC] | green FITC fluorescence is observed in the corneal epithelium and in the nucleus of interstitial cells in the cornea | – | – | – | – | – | – | – | – | – |
| CC(=O)Nc1cc(C(=O)Nc2cc(C(=O)NCCC(=O)Nc3cn(C)c(C(=O)Nc4cc(C(=O)Nc5cc(C(=O)NCCCC(=O)Nc6cn(C)c(C(=O)Nc7cc(C(=O)Nc8cc(C(=O)NCCC(=O)Nc9cn(C)c(C(=O)Nc%10cn(C)c(C(=O)NCCC(=O)NCCCN(C)C)n%10)n9)n(C)c8)n(C)c7)n6)n(C)c5)n(C)c4)n3)n(C)c2)n(C)c1 [rTGF-β (GBP1201)] | – | bound specifically to the target DNA | did not bind to the mismatch polyamide | 149 | 5.12 | significantly better than the control | significantly earlier (approximately twice as fast) than the control | significantly better than the control | No immunohistological difference | inhibited |

— US20120071628A1, “TOPICAL THERAPEUTIC AGENT FOR OPHTHALMIC DISEASES COMPRISING COMPOUND CAPABLE OF BINDING SPECIFICALLY TO DNA SEQUENCE” (NIHON UNIVERSITY, priority 2009, published 2012)
